Reference: patent US20040142899A1, “Compositions and methods for enhanced biostability and altered biodistribution of oligonucleotides in mammals” (ISIS Pharmaceuticals, Inc., priority 1990, published 2004)
Where “and” joins values, the source holds several entries; their conditions need not be identical. Identical values can stand only once.

What was measured:
[1] = system: E2 gene of bovine papilloma virus type 1 (BPV-1); test: E2 transactivation assay (pE2RE-1-CAT) in I-38 cells; assay type: cell-based, bovine papilloma virus-1; settings: I-38 cells transfected with pE2RE-1-CAT, harvested after 48 hours; lower = more inhibition; listed as positive control compound
MDR1 mRNA [2] = test: MDR1 mRNA expression by Northern blotting in MDR 3T3 cells; assay type: cell-based, human; settings: for MDR1 mRNA Level (arbitrary units) / % Control (MDR1 mRNA): oligonucleotide 1 μm, with Lipofectin; for MDR1 mRNA Level (arbitrary units): serum free medium; for % Control (MDR1 mRNA): control = untreated cells
Description: NIH 3T3 cells transfected with a plasmid containing the human MDR1 gene (pSK1 MDR) have been previously described (Kane et al., Gene, 1989, 84, 439). These cells have proven to be useful models for the study of multi-drug resistance phenomena. Cells were grown in DMEM media containing 10% fetal bovine serum (FBS) and 60 ng/ml colchicine in an atmosphere of 95% air, 5% CO2.
Cells were grown in […] flasks.
To measure MDR1 mRNA expression by Northern blotting, total cellular RNA was isolated by lysis in 4M guanidium isothiocyanate followed by a cesium chloride gradient, and the RNA was resolved on 1.2% agarose gels containing 1.2% formaldehyde and transferred to nitrocellulose membranes (Dean et al., J. Biol. Chem., 1994, 269, 16416). The blots were hybridized with a ^32P radiolabeled human MDR1 cDNA probe. The MDR1 cDNA probe was isolated by performing a polymerase chain reaction on the pSK1 MDR plasmid, as described previously (Alahari et al., Nucl. Acids Res., 1993, 21, 4079). The following oligonucleotide primers were used for PCR: […]
The resulting fragment was checked on an agarose gel and was radiolabeled with ^32P-dCTP using a commercially available random primer labeling kit (Amersham, Arlington Heights, Ill.) according to the manufacturer's instructions. The filters were hybridized overnight in hybridization buffer (25 mM KPO4, pH 7.4; 5×SSC; 5×Denhardt's solution, 100 ug/ml Salmon sperm DNA and 50% formamide) (Alahari et al., Nucl. Acids Res., 1993, 21, 4079). This was followed by two washes with 1×SSC, 0.1% SDS and two washes with 0.25×SSC, 0.1% SDS. Hybridizing bands were visualized by exposure to X-OMAT AR film and quantitated using a PhosphorImager™ (Molecular Dynamics, Sunnyvale, Calif.). To confirm equal loading of RNA, the blots were stripped and reprobed with a ^32P-labeled beta-actin probe (Clontech, Palo Alto, Calif).
In initial experiments, the MDR 3T3 cells were exposed to 1.0 μm concentrations of several different antisense oligonucleotides, or control oligonucleotides, in the presence of 20 ug/ml LIPOFECTIN® for 24 hours. […] NIH 3T3 cells transfected with pSK1 MDR plasmid were grown to 90% confluence and treated with oligonucleotide (1 μm) for 24 hours in the presence of Lipofectin® in serum free medium. Total RNA was isolated and fractionated on agarose formaldehyde gels and blotted onto nitrocellulose membranes. These membranes were probed with a ^32P radiolabeled 1.0 kb MDR1 cDNA, and then stripped and reprobed with a ^32P radiolabeled beta-actin cDNA probe to confirm equal loading of RNA, allowing the levels of MDR1 transcripts to be normalized with regard to the beta-actin bands. Transcript levels were quantitated using a PHOSPHORIMAGER™ (Molecular Dynamics, Sunnyvale, Calif.); the values are expressed in arbitrary units (the beta-actin transcripts were essentially constant).

P-glycoprotein [3] = test: P-glycoprotein expression by Western blotting in MDR 3T3 cells; assay type: cell-based, human; settings: maximum only after 72 hours exposure
Description: Transfected MDR NIH 3T3 cells were grown and treated with oligonucleotides as described in Example (9)(B). In order to measure P-glycoprotein expression by Western blotting, cells were seeded in 60 mm dishes at 1.2×10^6 per dish and incubated for 24 hours in serum containing medium. The cells were treated with the oligomers for various times in serum free medium as described above. Cells were then extracted in lysis buffer (20 mM Tris, pH 7.5, 2 mM EDTA, 500 mM EGTA, 2 mM PMSF, 1 mM DTT, aprotonin (10 ug/ml), 0.5% Triton-X) and sonicated briefly. The lysate was spun in a microfuge tube for 20 minutes at 4° C. and the resulting supernatant was checked for protein content. Equal amounts of protein (usually 20 ug) were mixed with SDS sample buffer and boiled. Protein samples were separated by 8% SDS PAGE and the resolved proteins were electrophoretically transferred onto polyvinyllidene fluoride membranes (Millipore, Bedford, Mass.). The membranes were blocked (with 3% BSA, 2% non fat dry milk in PBS) and then treated with 2 ug/ml C219 anti-P-glycoprotein antibody (Signet, Dedham, Mass.). After washing three times with 0.1% Tween 20, the membranes were incubated with rabbit anti-mouse antibody (Cappel, Durham, N.C.). Immunoreactive proteins were visualized either by ECL (Enhanced Chemiluminescence, Amersham, Arlington Heights, Ill.) or with ^125I secondary antibodies.

P-glycoprotein [4] = test: Cell surface P-glycoprotein by immunofluorescent staining and flow cytometry in MDR 3T3 cells; assay type: cell-based, human; settings: 1 μm administered with LIPOFECTIN, parallel experiment
Description: MDR 3T3 cells were treated with various concentrations of oligonucleotides ISIS 11073 (5′-cholesterol 5995), or ISIS 12064 (5′-cholesterol 10221; scrambled control) for 48 hours in serum free medium. The cells were recovered and stained with an anti-P-glycoprotein monoclonal antibody directed against a surface epitope, followed by a phycoerythrin-conjugated second antibody. The level of cell surface fluorescence in viable cells was quantitated using a flow cytometer; light scatter parameters were set so as to exclude non-viable cells. […] The results represent means and standard errors for 6 determinations.
Transfected MDR NIH 3T3 cells were grown and treated with oligonucleotides as described in Example (9)(B). MDR1 mRNA expression was measured by Northern blotting as described in Example (9)(C). In order to measure cell surface P-glycoprotein levels by flow cytometry, cells were seeded in 60 mm dishes at 1.2×10^6/plate in 5 ml of medium, grown for one day in 10% FBS/DMEM, and exposed to the oligomers in serum free medium. […] The level of R-PE fluorescence in viable cells (as determined by light scatter) was quantitated using the Cicero software application (Cytomation, Fort Collins, Co.) on a Becton Dickinson flow cytometer.

[5] = system: multi-drug resistant 3T3 cells
MDR1 mRNA [6] = test: MDR1 mRNA expression by Northern blotting in MDR 3T3 cells; assay type: cell-based, human
[7] = system: DNA complementary strand, Oligomer 40; test: Melting analysis (Tm) of 2′-O-pentylamino linker strand against DNA complementary strand; assay type: binding
Description: (§1) The test oligonucleotides (either the phosphodiester, phosphorothioate, cholic acid conjugated phosphodiester, cholic acid conjugated phosphorothioate or 5′-aminolink intermediate phosphodiester or phosphorothioate oligonucleotides of the invention or otherwise) and either the complementary DNA or RNA oligonucleotides were incubated at a standard concentration of 4 μM for each oligonucleotide in buffer (100 mM NaCl, 10 mM Na-phosphate, pH 7.0, 0.1 mM EDTA). Samples were heated to 90 degrees C. and the initial absorbance taken using a Guilford Response II spectro-photometer (Corning, Inc., Corning, N.Y.). Samples were then slowly cooled to 15° C. and then the change in absorbance at 260 nm was monitored during the heat denaturation procedure. The temperature was elevated 1 degree/absorbance reading and the denaturation profile analyzed by taking the 1st derivative of the melting curve. Data was also analyzed using a two-state linear regression analysis to determine the Tm's. The results of these tests are shown in Table 3 as are the HPLC retention times of certain of the test compounds.
(§2) Melting analysis was conducted as per the method of Procedure B(1)(b).

[8] = system: RNA complementary strand, Oligomer 41; test: Melting analysis (Tm) of 2′-O-pentylamino linker strand against RNA complementary strand; assay type: binding
Description: as §1, §2

mouse ICAM-1 mRNA = test: ICAM-1 mRNA levels in LPS-treated mice (Northern analysis); assay type: in vivo
Description: (§3) Mice were treated with oligonucleotides and examined as follows. […] Then, to induce ICAM-1 expression, bacterial lipopolysaccharide (LPS) was injected into the mice. After 2 hours, the mice were sacrificed, and particular organs, or specific portion thereof, were removed for further study. RNA was prepared from isolated, homogenized tissues essentially according to the guanidinium/CsCl purification method of Chirgwin et al. (Biochemistry, […], 18, 5294), electrophoresed and transferred to nylon membranes for hybridization studies (Northern analysis) according to methods well known in the art. In order to detect mouse ICAM-1 mRNA, a radiolabelled probe was prepared by random oligonucleotide-primed synthesis using a mouse ICAM-1 clone as a template. The blots were stripped and reprobed with a ^32P-labeled glyceraldehyde 3-phosphate dehydrogenase (G3PDH) probe (Clontech Laboratories, Inc., Palo Alto, Calif.) in order to confirm equal loading of RNA and to allow the levels of ICAM-1 transcripts to be normalized with regard to the G3PDH signals. Hybridizing bands were visualized by exposure to X-OMAT AR film and quantitated using a PHOSPHORIMAGER™ essentially according to the manufacturer's instructions (Molecular Dynamics, Sunnyvale, Calif.).

c-raf mRNA = c-raf mRNA levels in murine liver (gene target specificity); assay type: in vivo, mouse; settings: 10 mg/kg
Description: as §3
(§4) In similar experiments, the sequence (gene target) specificity of the 5′-cholesterol antisense oligonucleotide ISIS 8005 was examined.

PECAM-1 mRNA = PECAM-1 mRNA levels in murine liver (gene target specificity); assay type: in vivo, mouse; settings: 10 mg/kg
Description: as §3, §4

[9] = Oligomer 38 versus unmodified Oligomer 39

Substance: 5′-CTG-TCT-CCA-TCC-TCT-TCA-CT (CTGTCTCCATCCTCTTCACT; all phosphorothioate, sugars by position and methylation of C not given here) [Oligomer 42]
- percent acetylation (chloramphenicol acetyl transferase) [1]: 29% and 30%

Substance: CAC-CAC-CCC-CCT-CGC-TGG-TC (CACCACCCCCCTCGCTGGTC; chemistry not given here) [ISIS 10221, reference compound]
- MDR1 mRNA Level (arbitrary units) (MDR1 mRNA [2]; 24 hours): 456,522 arbitrary units
- % Control (MDR1 mRNA) (MDR1 mRNA [2]; 24 hours): 96%
- reduction of P-glycoprotein (Western assays) (P-glycoprotein [3]): did not reduce P-glycoprotein expression
- effect on P-glycoprotein surface expression (P-glycoprotein [4]): less effective than an equivalent concentration of the cholesterol-conjugated analogs
- non-specific effects at higher concentrations [5]: reduced beta-actin message levels and increased cytotoxicity
- MDR1/beta-actin ratio (MDR1 mRNA [6]; repeated experiments, laser densitometry of autoradiograms): 1.01

Substance: CCA-TCC-CGA-CCT-CGC-GCT-CC (CCATCCCGACCTCGCGCTCC; chemistry not given here) [ISIS 5995]
- reduction in MDR1 message levels (MDR1 mRNA [2]; 1.0 μm, 20 ug/ml LIPOFECTIN, 24 hours): about 50%
- time to normal levels of MDR1 mRNA after return to medium without oligonucleotide (MDR1 mRNA [2]; after 24 hours exposure): ≤ 24 h
- reduction in MDR1 message at maximal specific effect (MDR1 mRNA [2]; approximately 1.0 μm, 24 hours, LIPOFECTIN (FIG. 1)): approximately 60%
- MDR1 mRNA Level (arbitrary units) (MDR1 mRNA [2]; 24 hours): 226,087 arbitrary units
- % Control (MDR1 mRNA) (MDR1 mRNA [2]; 24 hours): 48%
- reduction of P-glycoprotein (Western assays) (P-glycoprotein [3]): at least 80%
- effect on P-glycoprotein surface expression (P-glycoprotein [4]): less effective than an equivalent concentration of the cholesterol-conjugated analogs
- treatment time of maximum specific reduction of MDR1 mRNA (MDR1 mRNA [6]; 1 μm, 24, 48 and 72 hours tested): 24 h
- lowest concentration with some reduction in message levels (MDR1 mRNA [6]; dose response 50-1000 nM, 24 hours, LIPOFECTIN): 100 nM

Substance: GGA*-CCG-GA*A*-GGT-A*CG-A*G (GGACCGGAAGGTACGAG; chemistry not fully specified) [Oligomer 38, A* = pentylamino functionality at 2′-position]
- change in Tm (Δ38-39) DNA [7, 9]: (6.1) degrees
- Tm DNA ([7]; against Oligomer 40, 4 μM each strand, 100 mM NaCl, 10 mM Phosphate, 0.1 mM EDTA, pH 7.0): 54.5 degrees centigrade
- change in Tm (Δ38-39) RNA [8, 9]: (1.1) degrees
- Tm RNA ([8]; against Oligomer 41, 4 μM each strand, 100 mM NaCl, 10 mM Phosphate, 0.1 mM EDTA, pH 7.0): 58.0 degrees centigrade

Substance: U*GC-ATC-CCC-CAG-GCC-ACC-AT [ISIS 8005]
- reduction of hepatic ICAM-1 mRNA relative to LPS without oligonucleotide (mouse ICAM-1 mRNA; liver, 30 mg/kg i.v. 24 and 2 hours prior to LPS): about 50%
- reversal of LPS-mediated induction of ICAM-1 mRNA in the lung (mouse ICAM-1 mRNA; lung samples, 30 mg/kg): neither ISIS 3082 nor its 5′-cholesterol conjugate ISIS 8005 was able to reverse the LPS-mediated induction of ICAM-1 to any great degree
- effect on c-raf mRNA levels (c-raf mRNA): no effect
- effect on PECAM-1 mRNA levels (PECAM-1 mRNA): no effect
- ICAM-1 staining of liver sections (ICAM-1 protein; LPS-induced livers, HRP-conjugated secondary antibodies): virtually indistinguishable
- overall cellular structure of liver (ICAM-1 protein; mouse, in vivo): no gross cellular defects
